Measurements published in patent US10201532B2, “Compounds and their use” (ALLECRA THERAPEUTICS GMBH, priority 2010, dated 2019).
One block for each compound: values may come before it.

Tests used:
[1] = tested on: KPC-2 producing K. pneumoniae (ATCC BAA-1705); test: Synergistic broth micro-dilution MIC (checkerboard); assay type: cell-based, Klebsiella pneumoniae; conditions: ATCC BAA-1705; for MIC: Klebsiella pneumoniae, ATCCBAA1705, no BLI, read-out: MIC of antibiotic alone (no BLI)
[2] = tested on: KPC-3 expressing E. coli (J53 R6206); test: as above; assay type: cell-based, Escherichia coli
[3] = tested on: KPC-3 expressing E. coli (J53 R6206); test: microbe, parasite or virus in culture; assay type: cell-based, Escherichia coli; conditions: no BLI; E. coli J53 R6206
Experimental: The β-lactam compound was tested for in vitro antibacterial activities by the broth micro-dilution or agar dilution method as specified in documents published by Clinical and Laboratory Standards Institute (CLSI), USA (formerly NCCLS). Approved standard M7-A7, January 2006, CLSI, Wayne, Pa., USA and M100-S18, January 2008, CLSI, Wayne, Pa., USA.
In agar dilution method briefly, stock solutions of the cephalosporins for veterinary use (e.g. 2 mg/mL) was made in water, 0.1M phosphate buffers or appropriate solvents and the solution was serially two fold diluted. Compound-1 was dissolved in water and Tazobactam (comparator BLI) in 0.1M phosphate buffer, pH 6.0 to get a solution of 1 mg/mL. Cephalosporins were screened in a concentration range of 0.5-32 μg/mL. For combination, Tazobactam or the Compound-1 described herein were tested at a fixed concentration of 4 μg/mL along with the cephalosporins concentration ranging from 0.5 to 32 μg/mL. […] The compound of formula (I) and Tazobactam were also tested individually. The bacterial inoculum was prepared by picking 3 to 5 well isolated bacterial colonies with the same morphological appearance from an 18-24 h old culture and adjusting the turbidity of the saline suspension to 0.5 McFarland turbidity standard equivalent to a bacterial population of ˜1×10^8 CFU per mL of suspension. The suspension was diluted 1:10 in saline to get a bacterial population of ˜1×10^7 CFU/mL as inoculum. This bacterial inoculum was inoculated onto the prepared petri dishes by a multipoint inoculator with each inoculum spot containing ˜1×10^4 CFU of the bacterial strain. The inoculated petri dishes were incubated at 35° C. in an ambient atmosphere for 18-20 h.

Structure (SMILES): C=CC[n+]1ccn(C[C@@]2(C)[C@H](C(=O)O)N3C(=O)C[C@H]3S2(=O)=O)n1 [Compound-4, 1-{[(2S,3S,5R)-2-Carboxy-3-methyl-4,4,7-trioxo-4-thia-1-azabicyclo[3.2.0]hept-3-yl]methyl}-3-allyl-1H-1,2,3-triazol-3-ium]
MIC of BLI alone [1]: >16 µg/mL | MIC of Imipenem in combination with BLI ([1]; BLI at 4 μg/mL): 4 µg/mL | MIC of Meropenem in combination with BLI ([1]; BLI at 4 μg/mL): 8 µg/mL | MIC of Imipenem in combination with BLI ([1]; BLI at 16 μg/mL): 1 µg/mL | MIC of Meropenem in combination with BLI ([1]; BLI at 16 μg/mL): 4 µg/mL | MIC of BLI alone [2]: >16 µg/mL | MIC of Imipenem in combination with BLI ([2]; BLI at 4 μg/mL): 0.5 µg/mL | MIC of Meropenem in combination with BLI ([2]; BLI at 4 μg/mL): <0.125 µg/mL | MIC of Imipenem in combination with BLI ([2]; BLI at 16 μg/mL): 0.25 µg/mL | MIC of Meropenem in combination with BLI ([2]; BLI at 16 μg/mL): <0.125 µg/mL

Structure (SMILES): CC[n+]1ccn(C[C@@]2(C)[C@H](C(=O)O)N3C(=O)C[C@H]3S2(=O)=O)n1 [Compound-2, 1-{[(2S,3S,5R)-2-Carboxy-3-methyl-4,4,7-trioxo-4-thia-1-azabicyclo[3.2.0]hept-3-yl]methyl}-3-ethyl-1H-1,2,3-triazol-3-ium]
MIC of BLI alone [1]: >16 µg/mL | MIC of Imipenem in combination with BLI ([1]; BLI at 4 μg/mL): 4 µg/mL | MIC of Meropenem in combination with BLI ([1]; BLI at 4 μg/mL): 8 µg/mL | MIC of Imipenem in combination with BLI ([1]; BLI at 16 μg/mL): 1 µg/mL | MIC of Meropenem in combination with BLI ([1]; BLI at 16 μg/mL): 2 µg/mL | MIC of BLI alone [2]: >16 µg/mL | MIC of Imipenem in combination with BLI ([2]; BLI at 4 μg/mL): 0.5 µg/mL | MIC of Meropenem in combination with BLI ([2]; BLI at 4 μg/mL): <0.125 µg/mL | MIC of Imipenem in combination with BLI ([2]; BLI at 16 μg/mL): 0.25 µg/mL | MIC of Meropenem in combination with BLI ([2]; BLI at 16 μg/mL): <0.125 µg/mL

Structure (SMILES): C[C@]1(Cn2cc[n+](CC(N)=O)n2)[C@H](C(=O)O)N2C(=O)C[C@H]2S1(=O)=O [Compound-5, 1-{[(2S,3S,5R)-2-Carboxy-3-methyl-4,4,7-trioxo-4-thia-1-azabicyclo[3.2.0]hept-3-yl]methyl}-3-(2-amino-2-oxoethyl)-1H-1,2,3-triazol-3-ium]
MIC of BLI alone [1]: >16 µg/mL | MIC of Imipenem in combination with BLI ([1]; BLI at 4 μg/mL): 8 µg/mL | MIC of Meropenem in combination with BLI ([1]; BLI at 4 μg/mL): 8 µg/mL | MIC of Imipenem in combination with BLI ([1]; BLI at 16 μg/mL): 1 µg/mL | MIC of Meropenem in combination with BLI ([1]; BLI at 16 μg/mL): 2 µg/mL | MIC of BLI alone [2]: >16 µg/mL | MIC of Imipenem in combination with BLI ([2]; BLI at 4 μg/mL): 0.5 µg/mL | MIC of Meropenem in combination with BLI ([2]; BLI at 4 μg/mL): <0.125 µg/mL | MIC of Imipenem in combination with BLI ([2]; BLI at 16 μg/mL): 0.25 µg/mL | MIC of Meropenem in combination with BLI ([2]; BLI at 16 μg/mL): <0.125 µg/mL

Structure (SMILES): CO/N=C(\C(=O)N[C@@H]1C(=O)N2C(C(=O)[O-])=C(C[n+]3cccc4c3CCCC4)CS[C@H]12)c1csc(N)n1 [Cefquinome]
MIC of antibiotic alone (no BLI) ([1]; no BLI): >64 µg/mL | MIC of veterinary cephalosporin alone (no BLI) [3]: 16 µg/mL

Structure (SMILES): CO/N=C(\C(=O)N[C@@H]1C(=O)N2C(C(=O)O)=C(COC(C)=O)CS[C@H]12)c1csc(N)n1 [Cefotaxime]
MIC [1]: > 128 µg/mL | MIC of antibiotic alone (no BLI) ([2]; no BLI): >32 µg/mL

Structure (SMILES): CO/N=C(\C(=O)N[C@@H]1C(=O)N2C(C(=O)O)=C(CSC(=O)c3ccco3)CS[C@H]12)c1csc(N)n1 [Ceftiofur]
MIC [1]: > 64 µg/mL | MIC of veterinary cephalosporin alone (no BLI) [3]: 16 µg/mL

MIC [1]: > 64 µg/mL
Structure (SMILES): C[C@@H](O)[C@H]1C(=O)N2C(C(=O)O)=C([C@H]3CCCO3)S[C@H]12 [Faropenem]

Structure (SMILES): NC(=O)c1cc[n+](CC2=C(C(=O)[O-])N3C(=O)[C@@H](NC(=O)Cc4cccs4)[C@H]3SC2)cc1 [Cefalonium]
MIC [1]: > 64 µg/mL | MIC of veterinary cephalosporin alone (no BLI) [3]: 32 µg/mL
